Measured values as given in the supplement of paper PMC10733146.

Assays:
Test in all cases: viability relative to DMSO control (fraction); higher = less drug effect (more viable cells)
Conditions in all cases: 48 h
[1] = test system: primary AML patient cells (S002)
Summary of the method: (§1)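 Viability was quantified by CellTiter-Glo luminescence and related to the median of 16 inner DMSO wells. Before that, primary mononuclear tumour cells, fresh or cryopreserved and Ficoll-isolated from blood or bone marrow or prepared from processed lymph node, were plated at 4 × 10^4 cells per well in 384-well plates containing pre-plated compounds at five concentrations, one well each. Plates were incubated in RPMI-1640 with penicillin/streptomycin, L-glutamine and human serum at 37 °C and 5% CO2 for 48 h.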

[2] = test system: primary AML patient cells (S009)
Summary of the method: as §1

[3] = test system: primary AML patient cells (S011)
Summary of the method: as §1

[4] = test system: primary AML patient cells (S012)
Summary of the method: as §1

[5] = test system: primary AML patient cells (S017)
Summary of the method: as §1

[6] = test system: primary AML patient cells (S019)
Summary of the method: as §1

[7] = test system: primary AML patient cells (S021)
Summary of the method: as §1

[8] = test system: primary AML patient cells (S025)
Summary of the method: as §1

[9] = test system: primary AML patient cells (S037)
Summary of the method: as §1

[10] = test system: primary AML patient cells (S081)
Summary of the method: as §1

[11] = test system: primary AML patient cells (S085)
Summary of the method: as §1

[12] = test system: primary AML patient cells (S091)
Summary of the method: as §1

[13] = test system: primary B-PLL patient cells (S016)
Summary of the method: as §1

[14] = test system: primary BL patient cells (S005)
Summary of the method: as §1

[15] = test system: primary FL patient cells (S022)
Summary of the method: as §1

[16] = test system: primary FL patient cells (S087)
Summary of the method: as §1

[17] = test system: primary MCL patient cells (S041)
Summary of the method: as §1

[18] = test system: primary MCL patient cells (S053)
Summary of the method: as §1

[19] = test system: primary MCL patient cells (S068)
Summary of the method: as §1

[20] = test system: primary T-PLL patient cells (S008)
Summary of the method: as §1

Nc1ncn([C@@H]2O[C@H](CO)[C@@H](O)[C@H]2O)c(=O)n1 [Azacytidine (Vidaza)]
viability ([1]; 0.032 µM): 0.946 | viability ([1]; 0.16 µM): 0.979 | viability ([1]; 0.8 µM): 0.667 | viability ([1]; 4 µM): 0.31 | viability ([1]; 20 µM): 0.229 | viability ([2]; 0.032 µM): 0.943 | viability ([2]; 0.16 µM): 0.905 | viability ([2]; 0.8 µM): 0.916 | viability ([2]; 4 µM): 0.695 | viability ([2]; 20 µM): 0.468 | viability ([3]; 0.032 µM): 1.05 | viability ([3]; 0.16 µM): 1.29 | viability ([3]; 0.8 µM): 0.811 | viability ([3]; 4 µM): 0.32 | viability ([3]; 20 µM): 0.134 | viability ([4]; 0.032 µM): 0.958 | viability ([4]; 0.16 µM): 1.01 | viability ([4]; 0.8 µM): 1.04 | viability ([4]; 4 µM): 0.92 | viability ([4]; 20 µM): 0.766 | viability ([5]; 0.032 µM): 0.912 | viability ([5]; 0.16 µM): 0.96 | viability ([5]; 0.8 µM): 0.935 | viability ([5]; 4 µM): 0.661 | viability ([5]; 20 µM): 0.562 | viability ([6]; 0.032 µM): 0.935 | viability ([6]; 0.16 µM): 1.34 | viability ([6]; 0.8 µM): 0.986 | viability ([6]; 4 µM): 0.522 | viability ([6]; 20 µM): 0.308 | viability ([7]; 0.032 µM): 0.982 | viability ([7]; 0.16 µM): 1.17 | viability ([7]; 0.8 µM): 0.936 | viability ([7]; 4 µM): 0.501 | viability ([7]; 20 µM): 0.31 | viability ([8]; 0.032 µM): 1.07 | viability ([8]; 0.16 µM): 0.961 | viability ([8]; 0.8 µM): 0.757 | viability ([8]; 4 µM): 0.285 | viability ([8]; 20 µM): 0.0947 | viability ([9]; 0.032 µM): 1 | viability ([9]; 0.16 µM): 1.01 | viability ([9]; 0.8 µM): 0.901 | viability ([9]; 4 µM): 0.7 | viability ([9]; 20 µM): 0.595 | viability ([10]; 0.032 µM): 0.955 | viability ([10]; 0.16 µM): 1.08 | viability ([10]; 0.8 µM): 1.04 | viability ([10]; 4 µM): 0.951 | viability ([10]; 20 µM): 0.832 | viability ([11]; 0.032 µM): 1.22 | viability ([11]; 0.16 µM): 0.976 | viability ([11]; 0.8 µM): 0.638 | viability ([11]; 4 µM): 0.14 | viability ([11]; 20 µM): 0.0812 | viability ([12]; 0.032 µM): 0.933 | viability ([12]; 0.16 µM): 1.02 | viability ([12]; 0.8 µM): 0.892 | viability ([12]; 4 µM): 0.788 | viability ([12]; 20 µM): 0.621 | viability ([13]; 0.032 µM): 1.03 | viability ([13]; 0.16 µM): 1.06 | viability ([13]; 0.8 µM): 0.912 | viability ([13]; 4 µM): 0.142 | viability ([13]; 20 µM): 0.0474 | viability ([14]; 0.032 µM): 0.847 | viability ([14]; 0.16 µM): 0.862 | viability ([14]; 0.8 µM): 0.841 | viability ([14]; 4 µM): 0.766 | viability ([14]; 20 µM): 0.708 | viability ([15]; 0.032 µM): 1.03 | viability ([15]; 0.16 µM): 1 | viability ([15]; 0.8 µM): 1.01 | viability ([15]; 4 µM): 0.949 | viability ([15]; 20 µM): 0.624 | viability ([16]; 0.032 µM): 1.1 | viability ([16]; 0.16 µM): 1.06 | viability ([16]; 0.8 µM): 0.997 | viability ([16]; 4 µM): 0.906 | viability ([16]; 20 µM): 0.678 | viability ([17]; 0.032 µM): 1.04 | viability ([17]; 0.16 µM): 1.03 | viability ([17]; 0.8 µM): 0.812 | viability ([17]; 4 µM): 0.151 | viability ([17]; 20 µM): 0.0515 | viability ([18]; 0.032 µM): 0.924 | viability ([18]; 0.16 µM): 0.999 | viability ([18]; 0.8 µM): 0.587 | viability ([18]; 4 µM): 0.351 | viability ([18]; 20 µM): 0.289 | viability ([19]; 0.032 µM): 0.969 | viability ([19]; 0.16 µM): 1.04 | viability ([19]; 0.8 µM): 0.798 | viability ([19]; 4 µM): 0.325 | viability ([19]; 20 µM): 0.232 | viability ([20]; 0.032 µM): 0.965 | viability ([20]; 0.16 µM): 1.02 | viability ([20]; 0.8 µM): 0.988 | viability ([20]; 4 µM): 0.704 | viability ([20]; 20 µM): 0.289

Cc1cc(Nc2ncc(Cl)c(Nc3ccccc3S(=O)(=O)C(C)C)n2)c(OC(C)C)cc1C1CCNCC1 [Ceritinib]
viability ([1]; 0.024 µM): 1.12 | viability ([1]; 0.12 µM): 0.926 | viability ([1]; 0.6 µM): 0.861 | viability ([1]; 3 µM): 0.616 | viability ([1]; 15 µM): 0.0299 | viability ([2]; 0.024 µM): 0.937 | viability ([2]; 0.12 µM): 0.903 | viability ([2]; 0.6 µM): 0.823 | viability ([2]; 3 µM): 0.754 | viability ([2]; 15 µM): 0.0293 | viability ([3]; 0.024 µM): 0.846 | viability ([3]; 0.12 µM): 0.942 | viability ([3]; 0.6 µM): 0.631 | viability ([3]; 3 µM): 0.182 | viability ([3]; 15 µM): 0.0175 | viability ([4]; 0.024 µM): 1.05 | viability ([4]; 0.12 µM): 1.03 | viability ([4]; 0.6 µM): 1.06 | viability ([4]; 3 µM): 1.01 | viability ([4]; 15 µM): 0.0296 | viability ([5]; 0.024 µM): 0.958 | viability ([5]; 0.12 µM): 0.963 | viability ([5]; 0.6 µM): 0.995 | viability ([5]; 3 µM): 0.773 | viability ([5]; 15 µM): 0.0225 | viability ([6]; 0.024 µM): 1.08 | viability ([6]; 0.12 µM): 1 | viability ([6]; 0.6 µM): 1.03 | viability ([6]; 3 µM): 0.773 | viability ([6]; 15 µM): 0.0262 | viability ([7]; 0.024 µM): 1 | viability ([7]; 0.12 µM): 0.934 | viability ([7]; 0.6 µM): 0.833 | viability ([7]; 3 µM): 0.572 | viability ([7]; 15 µM): 0.03 | viability ([8]; 0.024 µM): 0.985 | viability ([8]; 0.12 µM): 0.874 | viability ([8]; 0.6 µM): 0.838 | viability ([8]; 3 µM): 0.508 | viability ([8]; 15 µM): 0.0191 | viability ([9]; 0.024 µM): 1.5 | viability ([9]; 0.12 µM): 0.922 | viability ([9]; 0.6 µM): 1.12 | viability ([9]; 3 µM): 0.742 | viability ([9]; 15 µM): 0.296 | viability ([10]; 0.024 µM): 0.963 | viability ([10]; 0.12 µM): 0.957 | viability ([10]; 0.6 µM): 0.967 | viability ([10]; 3 µM): 0.982 | viability ([10]; 15 µM): 0.0181 | viability ([11]; 0.024 µM): 1.02 | viability ([11]; 0.12 µM): 0.875 | viability ([11]; 0.6 µM): 0.62 | viability ([11]; 3 µM): 0.49 | viability ([11]; 15 µM): 0.0171 | viability ([12]; 0.024 µM): 0.947 | viability ([12]; 0.12 µM): 0.77 | viability ([12]; 0.6 µM): 0.436 | viability ([12]; 3 µM): 0.176 | viability ([12]; 15 µM): 0.0224 | viability ([13]; 0.024 µM): 0.945 | viability ([13]; 0.12 µM): 0.832 | viability ([13]; 0.6 µM): 0.743 | viability ([13]; 3 µM): 0.555 | viability ([13]; 15 µM): 0.0198 | viability ([14]; 0.024 µM): 1.05 | viability ([14]; 0.12 µM): 0.992 | viability ([14]; 0.6 µM): 0.944 | viability ([14]; 3 µM): 0.669 | viability ([14]; 15 µM): 0.0199 | viability ([15]; 0.024 µM): 1.01 | viability ([15]; 0.12 µM): 0.948 | viability ([15]; 0.6 µM): 0.846 | viability ([15]; 3 µM): 0.555 | viability ([15]; 15 µM): 0.0165 | viability ([16]; 0.024 µM): 0.968 | viability ([16]; 0.12 µM): 0.981 | viability ([16]; 0.6 µM): 0.883 | viability ([16]; 3 µM): 0.734 | viability ([16]; 15 µM): 0.0188 | viability ([17]; 0.024 µM): 0.966 | viability ([17]; 0.12 µM): 0.966 | viability ([17]; 0.6 µM): 0.9 | viability ([17]; 3 µM): 0.654 | viability ([17]; 15 µM): 0.0173 | viability ([18]; 0.024 µM): 0.986 | viability ([18]; 0.12 µM): 1.01 | viability ([18]; 0.6 µM): 1 | viability ([18]; 3 µM): 0.832 | viability ([18]; 15 µM): 0.0213 | viability ([19]; 0.024 µM): 0.94 | viability ([19]; 0.12 µM): 0.84 | viability ([19]; 0.6 µM): 0.88 | viability ([19]; 3 µM): 1.02 | viability ([19]; 15 µM): 0.0227 | viability ([20]; 0.024 µM): 0.991 | viability ([20]; 0.12 µM): 1.04 | viability ([20]; 0.6 µM): 0.939 | viability ([20]; 3 µM): 0.86 | viability ([20]; 15 µM): 0.0194
